Entries after “also recorded” stand apart in the source; their conditions may differ.
How the values were obtained:
[1] = system: MCF7 cells; test: Cell growth, viable cells by AlamarBlue; assay type: cell-based; details: MCF7, 4 days after transfection, mean ± SD, n = 3
[2] = system: HEK293 cells; test: Isolation of proteins on nascent DNA (iPOND) after cycloheximide; assay type: cell-based
Protocol: iPOND was performed as previously described. Briefly, exponentially growing 1 x 10^8 of HEK 293 cells were incubated with 10 μM EdU (5-ethynyl-2'-deoxyuridine) and fixed in 1 % formaldehyde for 20 min at RT after 20 min (nascent chromatin) or chased for 2 h in fresh medium before fixation (mature chromatin). Crosslinking was stopped by addition of 0.125 M glycine and cells were permeabilized in 0.25 % Triton-X-100 for 30 min at RT followed by Click reaction to couple biotin to EdU. Cells were incubated in Click reaction buffer (0.01 mM biotin azide, 10 mM sodium ascorbate, 2 mM CuSO4 in PBS) for 1-2 h at RT with constant mixing. Cells were lysed in lysis buffer (1 % SDS in 50 mM Tris pH 8.0) and chromatin was solubilized by sonication in BIORUPTOR (Diagenode) for 4 min with medium frequency and 0.5 intervals at 4 °C. Biotinylated chromatin fragments were purified on streptavidine-dynabeads (ThermoFisher) by overnight end-over-end rotation at 4 °C. After stringent washing including once with 1 M NaCl the bound chromatin was released and crosslinking was reversed by boiling the beads in 2X LDS buffer for 40 min at 100 °C. Samples were dissolved in NuPAGE Bis-Tris gel and Western blot was performed.

[3] = system: endogenous ATAD2; test: Peptide pull down from MCF7 nuclear extract; assay type: binding; details: immobilized histone peptides, nuclear extract from MCF7 cells
Protocol: H4 peptides (1-25) conjugated with Biotin was immobilized on Streptavidin-coupled Dynabeads for 2 hours at 4 °C and incubated with nuclear extract from MCF7 cells. Nuclear extract was prepared by first isolating nucleus in hypotonic buffer (10 mM Tris-HCl pH 8.5, 10 mM NaCl, 0.5 mM TCEP and 0.1 % NP-40) and disrupting nuclear envelop in high salt buffer (20 mM Tris-HCl pH 8.5, 420 mM NaCl, 0.5 mM TCEP, 0.1 % Triton X-100, 25 % Glycerol) for 2 hours at 4 °C. Soluble nuclear extract was harvested by centrifugation at 20000 g for 20 min and diluted to 1:3 in buffer without NaCl in order to achieve physiological salt concentration, 140 mM. The nuclear extract was incubated with the immobilized peptides on the Streptavidin-Dynabeads overnight at 4 °C. Next day, the beads were washed three times with washing buffer (20 mM Tris-HCl pH 8.5, 140 mM NaCl, 0.5 mM TCEP, 0.1 % Triton X-100, 25 % Glycerol) and twice with high salt buffer. Bound proteins were recovered by boiling the beads in 1X sample buffer for 5 min. at 95 °C and analyzed by SDS-PAGE and Western Blotting. For direct binding experiments 1 μM of immobilized histone peptides on Streptavidin-Dynabeads were incubated with indicated amounts of ligands for 2 hours at 4 °C. After stringent washing as described above, bound proteins were analyzed in Western Blotting.

[4] = system: GST-ATAD2-BD Mut; test: TR-FRET binding of biotinylated peptides to mutant bromodomain; design: species or system human; details: 10 nM GST-ATAD2-BD Mut
Protocol: (§1) TR-FRET measurements of GST-ATAD2 BD^981-1108 binding to the biotinylated synthetic peptides (Anaspec and Biosyntan) described in Supplementary Table S1 (SI Materials and Methods) were basically carried out as described recently for BRD4. For binding and competition experiments the concentration of GST-ATAD2 was 10 nM. Biotinylated peptides were tested in binding experiments at 100 nM and 1 μM, whereas the biotinylated H4K12ac tracer ([…]-K(Ac)-[…]-Biotin) was used at 50 nM in competition assays. […] All assays were performed in 50 mM HEPES pH 7.5, 100 mM NaCl, 50 mM KF, 0.25 mM CHAPS, 0.05 % BSA and 1 mM DTT and protein-peptide equilibrium complexes were detected with 10 nM of Anti-GST-XL665 MAb conjugate (Cisbio) and 2.5 nM of SA-Eu3+ Chelate (Perkin Elmer) as TR-FRET acceptor and donor molecules respectively. Raw fluorescence signals were acquired with a Pherastar FS microtiter plate reader (BMG) with 337 nm (excitation), 622 nm (donor emission) and 665 nm (acceptor emission). HTRF® ratio values were calculated as defined in the instrument software and normalized with low and high controls whenever appropriate. Competition experiments were analyzed with a four parameter logistic equation as defined in the GraphPad analysis software (http://www.graphpad.com/guides/prism/6/curve-fitting).

[5] = system: GST-ATAD2-BD WT; test: TR-FRET binding of biotinylated peptides to WT bromodomain; design: species or system human; details: for interaction with WT BD (TR-FRET, Figure 5C): 10 nM GST-ATAD2-BD WT, peptides at 100 nM and 1 μM
Protocol: as §1

Row | interaction with mutant BD (TR-FRET, Figure 5C) [4] | interaction with WT BD (TR-FRET, Figure 5C) [5] | Molecule | further results
1 |  |  | 5’-AGAUCACCCUCCUUAAAUAUU-3’ [PLK1] | viable cells, fluorescence intensity normalized to control siRNA treated cells [1]: 38.5%
2 |  |  | C[C@@H]1C[C@@H]([C@H](O)CC2CC(=O)NC(=O)C2)C(=O)[C@@H](C)C1 [cycloheximide] | recruitment of ATAD2 to nascent chromatin ([2]; HEK293, 250 μg/ml CHX […] before 10 μM EdU 20 min 37 °C, iPOND): abrogated; newly synthesized histone H4 acetylated at K12 on nascent chromatin ([2]; HEK293, CHX […], iPOND): lost; total level of ATAD2 ([2]; HEK293, CHX, Western blotting before crosslinking): unaffected
3 |  |  | H4 (1-25): biotinylated unmodified histone H4 peptide, AnaSpec Cat. No. 65242-1 | interaction with endogenous ATAD2 (pull down, Western blotting) [3]: not
4 | not with mutant BD | interact | H4K5,12diac (1-25): biotinylated histone H4 peptide di-acetylated at K5 and K12 | interaction with endogenous ATAD2 (pull down, Western blotting) [3]: interacts
5 | not with mutant BD | interact | H4K5/8/12/16ac (1-25): biotinylated histone H4 peptide acetylated at K5,8,12,16, AnaSpec Cat. No. 65248-1 | 
6 | not with mutant BD | strong binding; also recorded: interact | H4K5ac (1-25): biotinylated histone H4 peptide acetylated at K5, AnaSpec Cat. No. 65229-1 | 
7 | not with mutant BD | strong binding; also recorded: interact | H4K12ac (1-25): biotinylated histone H4 peptide acetylated at K12, AnaSpec Cat. No. 65208-1 | interaction with BD of ATAD2 (TR-FRET, Figure 5B) ([5]; 1 μM biotin-labelled peptide, 10 nM GST-ATAD2 BD, GST as control): strong interaction

From paper PMC5342555, “ATAD2 is an epigenetic reader of newly synthesized histone marks during DNA replication” (Oncotarget, 2016)
